Source: US11253589B2, “Modulation of the immune response” (priority 2007, dated 2022)

Columns and labels:
CD4+Foxp3:GFP- T cells = experiment: In vitro conversion of CD4+Foxp3:GFP- T cells into Treg; assay type: cell-based, mouse; conditions: antibodies to CD3 and CD28 in the presence of TCDD, 5 days
Procedure: CD4+ T cells were purified from Foxp3gfp knock in mice using anti-CD4 beads (Miltenyi, Auburn, Calif., USA) and sorted (FACSAria™ cell sorter, BD Biosciences) into naive CD4^+ Foxp3:GFP^− or CD4^+ Foxp3:GFP T cells. CD4^+ Foxp3:GFP^− T cells were stimulated with plate bound 1 μg/ml of anti-CD3 (145-2C11, eBioscience) and 2 μg/ml of anti-CD28 (37.51, eBioscience) for 5 days, supplemented with recombinant IL-2 (50 U/ml) at day 2 and 4, and analyzed by FACS at day 5 for their differentiation into […]. TGFβ1 (2.5 ng/ml) was used as a positive control.
To establish if TCDD triggered the conversion of CD4^+Foxp3^− T cells into new Foxp3^+ Treg cells, FACS sorted CD4^+Foxp3:GFP− T cells were activated in vitro with antibodies to CD3 and CD28 in the presence of TCDD, and the generation of CD4^+Foxp3:GFP^+ Treg was followed by FACS. TGFb1 was used as a positive control.

CD4+CD25- T cells = CD4+CD25- T cells activated with antibodies to CD3 in the presence of TCDD; assay type: cell-based, mouse; conditions: incubation with TCDD
Source text: To rule out any direct cytotoxic or pro-apoptotic effect of TCDD on effector T cells, purified mouse CD4^+CD25^− T cells were activated in vitro with antibodies to CD3 in the presence of TCDD.

zFoxp3 = zFoxp3 expression in zebrafish embryos by real time PCR; assay type: in vivo; conditions: 3-day post-fertilization zebrafish embryos, TCDD in water, 72 hours
Procedure: The expression of zFoxp3 was then analyzed by real-time PCR on FACS-sorted lymphocytes, myelomonocytes and erythrocytes (Traver et al., Nat Immunol 4, 1238-46 (2003)). RNA was extracted from cells using RNAeasy columns (Qiagen, Valencia, Calif., USA), complementary DNA was prepared as recommended (Bio-Rad Laboratories, Hercules, Calif., USA) and used as template for real time PCR. The expression of Foxp3 was quantified with specific primers and probes (Applied Biosystems, Foster City, Calif., USA) on the GeneAmp 5500 Sequence Detection System (Applied Biosystems). Expression was normalized to the expression of the housekeeping gene, GAPDH.
TCDD was also used to characterize the functional relationship between AHR and Foxp3.

AHR-d mice = experiment: EAE induced with MOG35-55/CFA in AHR-d mice; assay type: in vivo; conditions: TCDD 1 μg/mouse
Procedure: C57BL/6 mice were given a single intraperitoneal (ip) dose of TCCD, and one day later EAE was induced by immunization with MOG35-55 in CFA. TCDD was also administered orally (1 μg/mouse) to determined whether an effective dose of this ligand can be delivered via oral administration and whether this dose is capable of reducing EAE development. EAE was induced by injecting the mice subcutaneously with […] of the MOG35-55 peptide ([…] (SEQ ID NO: 156)) in complete Freund adjuvant oil. In addition, the mice received 150 ng of pertussis toxin (Sigma-Aldrich) ip on days 0 and 2. Clinical signs of EAE were assessed according to the following score: 0, no signs of disease; 1, loss of tone in the tail; 2, hind limb paresis; 3, hind limb paralysis; 4, tetraplegia; 5, moribund.
(§1) To confirm that the effects on EAE were mediated by the activation of AHR, we used C57BL/6 mice carrying the d allele of the ahr gene (AHR-d mice). This allele codes for a mutant AHR with a 10 fold reduction in its affinity for TCDD and other ligands (Okey et al., Mol Pharmacol. 35, 823-30 (1989)) due to mutations in its ligand binding sites.

mouse Foxp3 locus = experiment: Zebrafish microinjected with renilla-tagged mouse Foxp3 BAC; assay type: in vivo; conditions: total zebrafish lysates six days after microinjection, increasing amounts of TCDD
Procedure: A modified zebrafish based screening assay was established by microinjecting fertilized zebrafish eggs with a BAC construct encoding the complete mouse Foxp3 locus, with a renilla reporter inserted after the Foxp3 methionine start codon (ATG). Six days after microinjection, renilla activity was determined in total zebrafish lysates.

[1] = tested on: CD4+Foxp3:GFP- 2D2 T cells; experiment: In vivo conversion of transferred CD4+Foxp3:GFP- 2D2 T cells into Treg; conditions: recipients given 1 μg/mouse TCDD, immunized 2 days later with MOG35-55
Procedure: To investigate if new Treg could also be generated in vivo following TCDD administration, we transferred CD4^+Foxp3:GFP^− 2D2 T cells from CD90.2 donors into wild type CD90.1 recipients. CD4^+Foxp3:GFP^− 2D2 T cells express a MOG35-55-specific T cell receptor. The recipients were administered 1 μg/mouse TCDD and were immunized 2 days later with MOG35-55. CD4^+Foxp3:GFP^+ CD90.2 T cells (donor cells that underwent conversion into Treg upon treatment with TCDD) were then quantified by FACS.

CD4+ Foxp3+ Treg = experiment: CD4+Foxp3+ Treg levels in AHR-d mice; assay type: in vivo; conditions: TCDD 1 μg/mouse
Source text: as §1

[2] = tested on: IgG serum antibodies to myelin antigens; experiment: Antigen microarray of serum antibody response to myelin; assay type: in vivo, mouse; conditions: TCDD-treated mice that did not develop EAE, FDR < 0.05
Procedure: The antigens listed in Table 1 were spotted onto Epoxy slides (TeleChem, Sunnyvale, Calif., USA) as described (Quintana et al., Proc Natl Acad Sci USA 101 Suppl 2, 14615-21 (2004)). Antigens were spotted in replicates of 6, the microarrays were blocked for 1 h at 37° C. with 1% bovine serum albumin, and incubated for 2 hours at 37° C. with a 1:100 dilution of the test serum in blocking buffer. The arrays were then washed and incubated for 45 min at 37° C. with goat anti-mouse IgG Cy3-conjugated detection antibodies (Jackson ImmunoResearch Labs, West Grove, Pa., USA). The arrays were scanned with a ScanArray 4000X scanner (GSI Luminomics, Billerica, Mass., USA). Antigen reactivity was defined by the mean intensity of binding to the replicates of that antigen on the microarray. Raw data were normalized and analyzed using the GeneSpring software (Silicon Genetics, Redwood City, Calif., USA) with the non-parametric Wilcoxon-Mann-Whitney test, using the Benjamini and Hochberg method with a false discovery rate (FDR) of 0.05 to determine significance. The samples were clustered using a pairwise average linkage algorithm based on Spearman's rank correlation as a distance measure. […]

mutant AHR = conditions: Okey et al. 1989; cited from earlier work

Clc1cc2c(cc1Cl)Oc1cc(Cl)c(Cl)cc1O2 [TCDD, 2,3,7,8 tetrachlorodibenzo-p-dioxin]
conversion of cells in culture into CD4+Foxp3:GFP+ Treg (CD4+Foxp3:GFP- T cells): approximately 13%
T cell apoptosis (annexin-FITC staining) (CD4+CD25- T cells; antibodies to CD3): did not increase T cell apoptosis
proliferative response (CD4+CD25- T cells; antibodies to CD3, 72 hours): did not decrease the proliferative response
zFoxp3 expression (zFoxp3): dose-dependent increase in zFoxp3 expression
Mean day of onset (Mean ± SD) (AHR-d mice): 17.3 ± 3.0 days
Mean maximum score (mean ± SD) (AHR-d mice): 2.2 ± 1.4
progression of EAE (AHR-d mice): did not inhibit the progression of EAE
renilla luciferase activity (murine Foxp3 expression) (mouse Foxp3 locus): increased in the presence of TCDD in a dose-dependent manner
conversion of CD4+Foxp3:GFP- CD90.2 donor T cells into Treg cells [1]: significant
levels of CD4+ Foxp3+ Treg (CD4+ Foxp3+ Treg): did not increase the levels
IgG serum antibodies to myelin antigens [2]: significant decrease in IgG serum antibodies to 97 myelin antigens
reduction in affinity of mutant AHR (d allele) for TCDD (mutant AHR): 10 fold
